Columns and labels:
[1] = system: epithelial cancer cell lines; experiment: PC1 scores of mock- or 5-azacitidine-treated cancer cell lines (GSE57342 dataset); assay type: cell-based; details: 26 epithelial cancer cell lines, mock- vs 5-azacitidine-treated; FIG. 18E
Description: The GSE57342 processed dataset was downloaded and cell lines with more than three Mock- and three 5-azacitidine-treated samples was selected for analysis.
We used the first and second principal component (a weighted average β-values among the CSG and ICG probes), as they account for the largest variability in the data, to represent the overall methylation status for 8,931 tumor and normal samples in the TCGA database. That is, PC=Σwixi, a weighted average β-values among the selected CSG and ICG probes, where xi represents gene i β-value, wi is the corresponding weight (loading coefficient) with Σwi^2=1, and the wi values maximize the variance of Σwixi. For each gene, a set of probes were selected using the following criteria to minimize noise, r<−0.2 (methylation vs gene expression) located in the TSS1500, TSS200 or the 5′UTR (Table 4). Each probe was centered but not scaled before PCA calculations.

[2] = system: CD40 gene in CAMA1 cell line; details: mock- vs azacytidine-treated, FIG. 18F; cited from earlier work

SMILES: Nc1ncn([C@@H]2O[C@H](CO)[C@@H](O)[C@H]2O)c(=O)n1 [5-azacytidine]
- PC1 score (hypermethylation of CSGs) [1]: significant decrease in PC1 scores
- methylation status of CD40 gene [2]: demethylation of CD40
